Results as given in patent US12628822B2, “Plant pathogen defence elicitors” (UNIVERSITÉ LIBRE DE BRUXELLES, priority 2020, dated 2026).

Experiments:
callose deposition = test: Callose staining in Arabidopsis leaves; assay type: in vivo, Arabidopsis thaliana; conditions: 6 and 24 h after treatment; 100 μM AA9_COS, 100 μM cellobiose or 1 μM FLG22; 5-week old plants
Protocol: Callose deposits quantification was performed essentially as described by Zarattini et al. (The bile acid deoxycholate elicits defences in Arabidopsis and reduces bacterial infection. Mol Plant Pathol. 2017, vol. 18(4), 540-554). […] Leaves were examined by stereofluorescence microscopy with an Azio Zoom V.16 (Carl Zeiss Inc., Oberkochen, Germany) and callose spots were quantified using ImageJ software.
Among them, several genes were associated to callose deposition in the cell wall (FIG. 4).

MPK3/6 = test: Western-blot analysis of MPK3/6 phosphorylation; assay type: in vivo, Arabidopsis thaliana; conditions: 100 μM, 5 mins after treatment, Col-0 plants
Protocol: FIG. 10d illustrates early immunohistochemical quantification or Western-blot analysis of the MPK3/6 phosphorylation after the indicated treatments. […] Leaves were collected 5 mins after treatment, immediately frozen in liquid nitrogen, and stored at −80° C. for analysis. […] The separated proteins were transferred on a 0.45-μm Immobilon-PPVDF membrane (Millipore). Blocking was performed in TBST containing 5% non-fat dry milk, and blots were incubated overnight at 4° C. with specific antibodies (anti-AtMPK6 and anti-Phospho-p44/42 MPK (Thr202/Tyr204)), washed in TBST, and incubated with the secondary antibody anti-Rabbit IgG conjugated with horseradish peroxidase (HRP) enzyme diluted to 1/10,000. The chemiluminescent detection of HRP was performed withClarity™Western ECL Substrate and ChemiDoc™MP Imaging System.

defence marker genes = test: qPCR analysis of defence marker gene expression in Arabidopsis plants; assay type: in vivo, Arabidopsis thaliana
Protocol: Arabidopsis thaliana Columbia (Col-0) was the accession used for all the experiments. Seeds were surface sterilised by subsequent treatment with 50% v/v Et-OH and 3% bleach solution in agitation for 5 and 10 min, respectively. Seeds were then washed three times with distilled water and stratified for 3 days at 4° C. in the dark. For qPCR analysis and microarray experiments, seeds were sown on square petri dishes ([…]) containing half strength Murashige and Skoog (MS) salt, 2.5 mM MES, 1% w/v sucrose and 0.8% w/v plant agar. The experiments were performed using 14-day old seedlings grown vertically in a controlled growth cabinet with short day conditions ( 8/16 h light/dark; 100 μmol photons m^−2 s^−1) at 22±0.5° C. Treatments were performed by applying 40-50 μl of fresh-prepared and filtered solution per seedling.
For RNA extraction, 14-day old leaves from ten independent plants were collected at the indicated time point after treatments, pooled and frozen in liquid nitrogen. Total RNA was extracted from 100 mg of ground-frozen samples using the Maxwell® LEV Plant RNA Kit (Promega, Madison, WI, USA) and the RNA integrity was determined through NanoDrop 2000 UV-Vis Spectrophotometer (Thermo Scientific, Loughborough, UK). First-strand cDNA was synthesized by using SOLIScript® RT cDNA synthesis MIX (Solis Biodyne, Tartu, Estonia) and qPCRs were performed using SYBR® Selected MasterMix 2× (Applied Biosystems, Thermo Fisher Scientific, Waltham, USA), following the manufacturers' protocols. The cycling conditions consisted of an initial 7 min at 95° C., followed by 40 two-step cycles at 95° C. for 5 s and at 60° C. for 30 s. Melting curve analysis was performed after cycle completion to validate amplicon identity. Relative expression levels were calculated following the standard curve-based method (Larionov et al. A standard curve based method for relative real time PCR data processing, BMC Bioinformatics. 2005, vol. 6, 1) by using ACTIN as reference. Gene-specific primers used in this work are indicated below. […]

Botrytis cinerea = test: B. cinerea inoculation of Arabidopsis leaves: necrotic lesion area and in planta growth; assay type: in vivo
Protocol: For “in planta” growth test of Botrytis cinerea and histochemical assays, five-week-old Col-0 plants were germinated in soil and grown in controlled chamber ( 8/16 h light/dark at 22/20° C. day/night) with a relative humidity equal to 70%. Treatments were performed by applying 40-50 μl of fresh-prepared and filtered solution per leaf.
Botrytis cinerea (strain B05.10, from the INRA/IJPB Institute, Versailles, France) was grown on potato dextrose agar medium at 21° C., with a photoperiod of 12 h light/12 h dark. Leaves were inoculated with two 5-μL droplets of B. cinerea spores (5×10^5 spores ml-1). At the indicated time points, genomic DNA from whole leaves was extracted following the modified protocol of Edwards et al. (A simple and rapid method for the preparation of plant genomic DNA for PCR analysis. Nucl. Acid. Res. 1991, vol. 19, 13491991) and fungal biomass was quantified as described by Gachon and Saindrenan (Real-time PCR monitoring of fungal development in Arabidopsis thaliana infected by Alternaria brassicicola and Botrytis cinerea. Plant Physiol Biochem. 2004, vol. 42, 367-371).
Three days after fungus inoculation, the areas of the developing necrotic lesions were analysed by ImageJ software and the B. cinerea “in planta” growth was evaluated through qPCR. […]

[1] = vs CTR, same array-hybridised RNA

OC[C@H]1O[C@@H](O[C@H]2[C@H](O)[C@@H](O)[C@H](O)O[C@@H]2CO)[C@H](O)[C@@H](O)[C@@H]1O [Cellobiose, β-D-glucopyranosyl(1→4)D-glucopyranose]
callose accumulation (callose deposition): no visible callose spots | Early MPK3/6 phosphorylation (MPK3/6): no phosphorylation was observed | mRNA accumulation of MPK3/6, WRKY33, PAD3 and PEN3 (defence marker genes; 100 μM, 1 and 24 hours, 14-day old plants): lower magnitude of expression | LOX4 (AT1G72520) gene expression, qPCR (defence marker genes; [1]): 0.69 fold change | MPK3 (AT3G45640) gene expression, qPCR (defence marker genes; [1]): 0.02 fold change | MPK6 (AT2G43790) gene expression, qPCR (defence marker genes; [1]): 0.55 fold change | PAD3 (AT3G26830) gene expression, qPCR (defence marker genes; [1]): −1.06 fold change | PEN3 (AT1G59870) gene expression, qPCR (defence marker genes; [1]): 1.07 fold change | PR1 (AT2G14610) gene expression, qPCR (defence marker genes; [1]): 1.29 fold change | WRKY18 (AT4G31800) gene expression, qPCR (defence marker genes; [1]): 2.60 fold change | WRKY22 (AT4G01250) gene expression, qPCR (defence marker genes; [1]): 1.10 fold change | WRKY33 (AT2G38470) gene expression, qPCR (defence marker genes; [1]): 1.31 fold change | IGMT2 (At1G21120) gene expression, qPCR (defence marker genes; vs mock, same array-hybridised RNA): −1.59 fold change | reduction of average sizes of necrotic lesions compared with untreated leaves (Botrytis cinerea; 100 μM pre-treatment 24 h before inoculation, three days after inoculation): a little protection | reduction of B. cinerea in planta growth (fungus biomass, qPCR) (Botrytis cinerea; 100 μM pre-treatment, 3 days after infection): slight reduction
